We go through 2 compounds from ChEMBL document CHEMBL1201862, “PubChem BioAssay data set” (2004).

Activity calls are given as the source filed them.

For assay [1], the target named is T1, RNA-binding protein pos-1 (Caenorhabditis elegans, UniProt G5EF15).
T1 sequence (G5EF15 whole entry): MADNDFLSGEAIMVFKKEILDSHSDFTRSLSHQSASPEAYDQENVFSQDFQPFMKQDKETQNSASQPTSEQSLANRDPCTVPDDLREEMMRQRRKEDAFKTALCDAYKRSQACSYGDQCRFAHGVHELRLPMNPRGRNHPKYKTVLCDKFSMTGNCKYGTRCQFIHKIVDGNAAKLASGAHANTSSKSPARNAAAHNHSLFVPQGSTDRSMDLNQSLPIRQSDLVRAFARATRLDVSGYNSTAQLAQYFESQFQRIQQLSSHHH
Briefly: inhibitors of POS-1/mex-3 RNA binding, dose response, biochemical, fluorescence polarization (AID 1964).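 Note: purified POS-1 fused to maltose binding protein made in E. coli; potency of compounds blocking POS-1 binding to fluorescent RNA.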

Assay [2] concerns the target T2, Zinc finger protein mex-5 (Caenorhabditis elegans, UniProt Q9XUB2).
T2 sequence (Q9XUB2 whole entry): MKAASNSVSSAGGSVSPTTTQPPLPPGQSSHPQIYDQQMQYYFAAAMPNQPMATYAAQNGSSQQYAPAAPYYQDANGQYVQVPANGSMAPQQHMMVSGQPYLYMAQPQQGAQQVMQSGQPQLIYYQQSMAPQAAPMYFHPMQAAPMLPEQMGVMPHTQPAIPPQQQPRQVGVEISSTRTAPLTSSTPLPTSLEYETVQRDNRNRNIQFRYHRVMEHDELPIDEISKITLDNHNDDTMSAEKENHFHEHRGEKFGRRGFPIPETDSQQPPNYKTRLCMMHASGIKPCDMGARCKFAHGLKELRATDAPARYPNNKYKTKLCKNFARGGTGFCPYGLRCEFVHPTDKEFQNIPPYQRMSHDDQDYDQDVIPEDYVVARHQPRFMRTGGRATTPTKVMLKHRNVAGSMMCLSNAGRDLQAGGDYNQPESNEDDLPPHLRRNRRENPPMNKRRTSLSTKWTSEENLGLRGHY
Briefly: MEX-5/TCR-2 RNA interaction inhibitors, dose response, biochemical, C. elegans, fluorescence polarization (AID 1960). For orientation: Polarisation of emitted light reports the rotation of a fluorescent probe.

In another assay the target is T3, Caspase-3 (Homo sapiens, UniProt P42574).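 Note: Dose-response selectivity test against caspase-3 for candidate inhibitors of sentrin-specific proteases (SENPs).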
T3 sequence (P42574 whole entry): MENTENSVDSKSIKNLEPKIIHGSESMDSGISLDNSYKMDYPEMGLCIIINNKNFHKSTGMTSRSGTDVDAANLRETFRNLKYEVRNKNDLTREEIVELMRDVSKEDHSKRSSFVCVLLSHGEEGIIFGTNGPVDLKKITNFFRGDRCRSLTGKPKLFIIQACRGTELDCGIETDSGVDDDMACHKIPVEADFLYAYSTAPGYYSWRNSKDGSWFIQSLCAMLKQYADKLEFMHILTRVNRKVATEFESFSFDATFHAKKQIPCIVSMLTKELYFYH
The assay is classed as functional.

Assay [3] has as its target Serine/threonine-protein phosphatase PP1-alpha catalytic subunit (Homo sapiens, UniProt P62136). Briefly: PP1 phosphatase inhibitors, dose response, biochemical, fluorescence (AID 2394).
Assay [4] is described as follows: Luminescence-based counterscreen assay for KLF5 inhibitors: dose response cell-based high throughput screening assay to identify cytotoxic compounds using the IEC-6 intestinal epithelial cell line. [Related pubchem assays: 1700 (Primary screen.), 1834 (Confirmation screen.), 1858 (Summary AID.), 1905 (Counterscreen.)]. The assay is classed as functional. (Counterscreens check selectivity or assay interference.)

Assay [5] has as its target T4, Replicative DNA helicase DnaB (Mycobacterium tuberculosis, UniProt P9WMR3).
T4 sequence (P9WMR3 whole entry): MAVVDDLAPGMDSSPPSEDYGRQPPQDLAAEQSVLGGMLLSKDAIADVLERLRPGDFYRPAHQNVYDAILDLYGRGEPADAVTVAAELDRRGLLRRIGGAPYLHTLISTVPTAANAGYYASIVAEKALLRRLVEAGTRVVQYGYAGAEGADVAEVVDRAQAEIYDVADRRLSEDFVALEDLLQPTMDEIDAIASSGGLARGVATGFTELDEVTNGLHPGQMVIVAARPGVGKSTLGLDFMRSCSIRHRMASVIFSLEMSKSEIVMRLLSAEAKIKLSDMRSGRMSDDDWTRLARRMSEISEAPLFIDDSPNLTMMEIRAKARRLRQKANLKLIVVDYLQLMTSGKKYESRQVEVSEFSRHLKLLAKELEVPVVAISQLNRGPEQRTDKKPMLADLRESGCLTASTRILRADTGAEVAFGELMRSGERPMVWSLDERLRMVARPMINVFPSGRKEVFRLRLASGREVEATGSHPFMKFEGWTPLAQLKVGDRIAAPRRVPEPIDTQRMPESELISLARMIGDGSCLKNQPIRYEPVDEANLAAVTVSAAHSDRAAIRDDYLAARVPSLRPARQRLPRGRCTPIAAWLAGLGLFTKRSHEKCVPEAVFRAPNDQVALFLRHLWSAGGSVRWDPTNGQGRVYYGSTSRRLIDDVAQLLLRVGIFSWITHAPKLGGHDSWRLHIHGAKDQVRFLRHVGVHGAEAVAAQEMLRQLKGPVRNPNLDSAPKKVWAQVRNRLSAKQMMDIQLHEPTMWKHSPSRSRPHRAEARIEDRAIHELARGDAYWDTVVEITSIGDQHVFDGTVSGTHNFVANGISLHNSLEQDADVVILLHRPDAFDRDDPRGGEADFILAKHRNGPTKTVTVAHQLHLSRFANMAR
Briefly: DnaB intein splicing inhibitors, dose response, biochemical, cell-free fluorescence (AID 449749). It counts as functional.

The EC50 is the concentration that produces a half-maximal response. For orientation: IC50 means the concentration needed to halve the response being measured. In general, AC50 refers to the concentration giving half of the maximal activity seen.

Chain of Serine/threonine-protein phosphatase PP1-alpha catalytic subunit (P62136 whole entry): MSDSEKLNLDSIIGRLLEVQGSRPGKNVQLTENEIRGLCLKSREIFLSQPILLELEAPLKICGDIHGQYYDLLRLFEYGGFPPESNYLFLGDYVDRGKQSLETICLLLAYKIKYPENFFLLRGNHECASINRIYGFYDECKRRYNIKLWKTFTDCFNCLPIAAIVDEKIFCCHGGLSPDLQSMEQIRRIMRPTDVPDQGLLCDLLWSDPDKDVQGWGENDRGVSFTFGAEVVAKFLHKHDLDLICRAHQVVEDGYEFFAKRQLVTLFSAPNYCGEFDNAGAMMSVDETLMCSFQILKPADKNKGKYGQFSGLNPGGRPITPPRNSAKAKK

As for `Oc1[nH]c2ccccc2c1N=Nc1ccc(F)cc1`, the EC50 in assay [1] is > 300 µM (not active); in assay [2] it was > 300 µM (inconclusive). Moreover, the IC50 at Caspase-3 was 7.58 µM (active).

As to `O=C1C(Nc2ccccc2)=C(N2CCCCC2)C(=O)c2ccccc21`, the IC50 is given as > 67 µM (not active) in assay [3] and > 39.8 µM (not active) in assay [4]. For the same compound, in assay [5], the AC50 was 68.5 µM (active).
